“And” between values parts separate entries of the source, which are not always exact repeats. Equal entries are not always repeated.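 Values below derive from 48-hour exposures of cells grown in 96-well plates, with endpoints linearly interpolated between the two concentrations bracketing the appropriate inhibition level. At the GI50, growth is halved. At the TGI there is no net growth.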
Key:
Experiment in all cases: NCI-60 cell line screen, 48 h
TK-10 renal = tested on: TK-10 renal
HT29 colon = tested on: HT29 colon
NCI-H522 lung = tested on: NCI-H522 lung
A498 renal = tested on: A498 renal
SNB-19 CNS = tested on: SNB-19 CNS
HOP-92 NSCLC = tested on: HOP-92 NSCLC
DU-145 prostate = tested on: DU-145 prostate
LOX IMVI melanoma = tested on: LOX IMVI melanoma
NCI-H226 lung = tested on: NCI-H226 lung
A549 NSCLC = tested on: A549 NSCLC

Compound | GI50 (TK-10 renal) | TGI (TK-10 renal) | GI50 (HT29 colon) | TGI (HT29 colon) | GI50 (NCI-H522 lung) | TGI (NCI-H522 lung) | GI50 (A498 renal) | TGI (A498 renal) | GI50 (SNB-19 CNS) | TGI (SNB-19 CNS) | GI50 (HOP-92 NSCLC) | TGI (HOP-92 NSCLC) | GI50 (DU-145 prostate) | TGI (DU-145 prostate) | GI50 (LOX IMVI melanoma) | TGI (LOX IMVI melanoma) | GI50 (NCI-H226 lung) | TGI (NCI-H226 lung) | GI50 (A549 NSCLC) | TGI (A549 NSCLC)
O=C(Nc1ccccc1/C=C/c1n[nH]c2ccccc12)c1ccccc1 | 4.85 µM | 16 µM | 1.78 µM | 7 µM | 9.28 µM | 24 µM | 1.42 µM | 3.21 µM | 5.93 µM | 22.5 µM | 0.218 µM | 5.25 µM | 2.6 µM | 8.23 µM | 2.48 µM | 11.4 µM | 1.09 µM | 11.5 µM | 2.47 µM | 13.6 µM
CCOC(=O)c1sc2nc(=S)[nH]c(NC(N)=S)c2c1C | 95.5 µM | > 100 µM | 20.1 µM | 52.9 µM | 20.7 µM | 55 µM | 27.8 µM | 62 µM | 28.1 µM | > 100 µM | 4.58 µM | 37.5 µM | 15.4 µM | 39.4 µM | 15.4 µM | 31 µM | – | 21.1 µM | 31.2 µM | 90.7 µM
CN1CCN(c2cc(F)c(NC3=C(Cl)C(=O)c4ncccc4C3=O)c(F)c2)CC1 | 1.81 µM | 3.32 µM | 2 µM | 4.04 µM | 0.559 µM | 2.26 µM | 10.9 µM | 23.7 µM | 1.94 µM | 3.9 µM | 1.69 µM | 3.22 µM | 1.45 µM | 2.94 µM | 1.35 µM | 2.84 µM | 15.7 µM | 39.5 µM | 4.21 µM | 16.3 µM
O=C(O)C1CCCN1 (configuration not stated) | – | > 100 µM | – | > 100 µM | – | > 100 µM | – | > 100 µM | – | > 100 µM | – | > 100 µM | – | > 100 µM | – | > 100 µM | – | > 100 µM | – | > 100 µM
COc1cc(OC)c(OC)cc1/C=C/c1ccccn1 | – | > 10 µM | – | > 10 µM | – | > 10 µM | – | > 10 µM | – | > 10 µM | – | > 10 µM | – | > 10 µM | – | > 10 µM | – | > 10 µM | – | > 10 µM
CC[C@@H]1C(=O)N(C)c2cnc(Nc3ccc(C(=O)NC4CCC(N5CCN(CC6CC6)CC5)CC4)cc3OC)nc2N1C(C)C (some centres not stated) | 0.128 µM and 0.0776 µM | > 10 µM and 8.62 µM | 0.00436 µM and < 0.01 µM | 2.07 µM and 1.35 µM | 0.00462 µM and < 0.0115 µM | 0.0822 µM and 0.0564 µM | 0.0284 µM and 0.0338 µM | 0.236 µM and 0.252 µM | 0.0356 µM and 0.0566 µM | > 10 µM and 18 µM | 0.0441 µM and 0.0596 µM | > 2.9 µM and 5.99 µM | 0.0118 µM and 0.0379 µM | > 10 µM and 16.8 µM | 0.0254 µM and 0.0339 µM | 1.6 µM and 1.67 µM | – | > 10 µM | 0.0308 µM and 0.0348 µM | –
COc1cc(-c2csc(NC(=O)Nc3ccc(Cl)cc3)n2)cc(OC)c1OC | 3.25 µM | 14.9 µM | 3.01 µM | 12.4 µM | 2.34 µM | 6.95 µM | 2.24 µM | 8.03 µM | 3.78 µM | 30.2 µM | 2.12 µM | 6.85 µM | 3.4 µM | 17.3 µM | 2.59 µM | 7.59 µM | 3.22 µM | 10.7 µM | 3.15 µM | 13.4 µM

Source: PubChem BioAssay (NCI)
